Patent publication US8124582B2, “Treatment of diabetes” (FibroGen, Inc., priority 2002, dated 2012)

Assays:
[1] = test system: inducible nitric oxide synthase (iNOS); assay: In vivo iNOS mRNA expression (quantitative PCR); design: species or system Swiss Webster male mice; settings: mice, FIG. 10A
Experimental: (§1) To determine gene induction patterns over time, twenty four Swiss Webster male mice (30-32 g) were obtained from Simonsen, Inc. and treated by oral gavage with a 4 ml/kg volume of either 0.5% carboxymethyl cellulose (CMC; Sigma-Aldrich, St. Louis Mo.) (0 mg/kg/day) or […] compound B (25 mg/ml in 0.5% CMC) (100 mg/kg). At 4, 8, 16, 24, 48, or 72 hours after the final dose, animals were anesthetized with isoflurane. The mice were then sacrificed and tissue samples of kidney, liver, brain, lung, and heart were isolated and stored in RNALATER solution (Ambion) at −80° C.
To investigate the dose response of compounds of the present invention, twelve Swiss Webster male mice (30-32 g) (obtained from Simonsen, Inc., Gilroy Calif.) were treated by oral gavage once per day for 4 days with a 4 ml/kg volume of either 0.5% carboxymethyl cellulose (CMC; Sigma-Aldrich, St. Louis Mo.), compound D (25 mg/ml in 0.5% CMC) (100 mg/kg/day), or compound B (7.5 and 25 mg/ml in 0.5% CMC) (30 and 100 mg/kg/day, respectively). Four hours after the final dose, animals were anesthetized, sacrificed, and approximately 150 mg of liver and each kidney were isolated and stored in RNALATER solution (Ambion) at −20° C.
Hypertension is a risk factor for diabetes and disorders and diseases associated with diabetes. The effects of compounds of the present invention on regulation of blood pressure were examined as follows. Animals were treated with compound B or compound D and RNA samples were prepared as described above in Example 4. […] Analysis of the relative level of gene expression was performed by quantitative PCR using a FASTSTART DNA MASTER SYBR GREEN I kit (Roche) and gene-specific primers, using a LIGHTCYCLER system (Roche), according to manufacturer's instructions. […]
The relative level of 18S ribosomal RNA gene expression was measured as a control. Quantitative PCR was performed using a QUANTITECT SYBR GREEN PCR kit (Qiagen) and gene-specific primers, using a LIGHTCYCLER system (Roche), according to manufacturer's instructions. […]

adrenomedullin = assay: In vivo adrenomedullin mRNA expression (microarray); design: species or system Swiss Webster male mice; settings: mice, heart, kidney, and lung
Experimental: as §1
For measurement of adrenomedullin mRNA expression, samples were prepared and were hybridized and analyzed as described above in Example 4.

HIF-1α = HIF-1α stabilization in cells, TRANSAM HIF-1 ELISA of nuclear fractions; type: cell-based, Human; settings: epithelial cells (293A) and hepatocellular carcinoma (Hep3B); FIG. 12B
Experimental: Stabilization of HIFα using compounds and methods of the present invention was examined as follows. Human cells derived from adenovirus-transformed fetal kidney epithelium (293A), cervical epithelial adenocarcinoma (HeLa), hepatocellular carcinoma (Hep3B), squamous carcinoma (SSC-25), and lung fibroblast (HLF) (see, e.g., American Type Culture Collection, Manassas Va.; and Qbiogene, Carlsbad Calif.) were separately seeded into 100 mm culture dishes and grown at 37° C., 20% O2, 10% CO2 in media as follows: HeLa cells in Dulbecco's Modification of Eagle's Medium (DMEM), 2% fetal bovine serum (FBS); HLF cells in DMEM, 10%FBS; 293A cells in DMEM, 5%FBS; and Hep3B cells in Minimal Essential Medium (MEM), Earle's BSS (Mediatech Inc., Herndon Va.), 2 mM L-glutamine, 0.1 mM non-essential amino acids, 1 mM sodium pyruvate, 10% FBS. When cell layers reached confluence, the media was replaced with OPTI-MEM media (Invitrogen Life Technologies, Carlsbad Calif.) and cell layers were incubated for approximately 24 hours in 20% O2, 10% CO2 at 37° C. Compound of the invention (one of compounds B, F, G, and H) or DMSO (0.5 to 1%) was then added to existing medium, and incubation was continued overnight.
Alternatively, nuclear fractions were prepared using a Nuclear Extract kit (Active Motif, Carlsbad Calif.) and were analyzed for HIF-1α using a TRANSAM HIF-1 ELISA kit (Active Motif) according to the manufacturer's instructions.

In the case of O=C(O)CNC(=O)c1nc(Cl)c2ccccc2c1O [compound B, [(1-Chloro4-hydroxy-isoquinoline-3-carbonyl)-amino]-acetic acid], the “dose dependence of iNOS induction” value ([1]; 30 and 100 mg/kg/day oral gavage) is reported as “dose-dependent”, the “expression of the gene encoding iNOS” value ([1]; oral gavage, within 8 hours following treatment, then returned to control levels, normalized to 18S rRNA) is reported as “increased” and the expression of adrenomedullin (adrenomedullin; 100 mg/kg oral gavage, FIG. 10B) is reported as “increased in various tissues”. The “time within which adrenomedullin mRNA levels returned to control levels” value (adrenomedullin; time course) was 16 to 24 h and the “HIFα stabilization and accumulation (ELISA) compared to vehicle-treated control cells” value (HIF-1α) was “stabilization and accumulation of HIFα”.
